From patent publication US11085050B2, “Elite event EE-GH7 and methods and kits for identifying such event in biological samples” (BASF AGRICULTURAL SOLUTIONS SEED, US LLC, priority 2016, dated 2021)

How the values were obtained:
plants comprising EE-GH7 = assay: Field tolerance of plants comprising EE-GH7 to IFT, glyphosate and combinations; type: in vivo, cotton (Gossypium hirsutum)
Method: Tolerance of plants comprising EE-GH7 to IFT, to glyphosate and to combinations thereof, was tested at different locations in the field. […] Currently available data appear to indicate a performance which is at least equal to, or better than the performance of plants comprising EE-GH7 over plants comprising the hppd and epsps chimeric genes as described in WO2013/026740.

[1] = system: commercial cotton cultivars comprising EE-GH7; assay: Herbicide tolerance after introgression of EE-GH7 into commercial cotton cultivars; type: in vivo, cotton (Gossypium hirsutum); conditions: EE-GH7 introgressed by repeated back-crossing into commercial cultivars
Source text: This confirms the status of event EE-GH7 as an elite event.

Structure (SMILES) | Tolerance of plants comprising EE-GH7 to the herbicide (plants comprising EE-GH7; different locations, IFT alone, in particular applied before emergence) | Expression of the transgene as determined by herbicide tolerance [1] | Tolerance of plants comprising EE-GH7 to the herbicide (plants comprising EE-GH7; applied post emergence) | Glyphosate tolerance of plants comprising EE-GH7 compared with elite glyphosate tolerant event EE-GH3 (plants comprising EE-GH7; versus EE-GH3 of WO2007/017186)
CS(=O)(=O)c1cc(C(F)(F)F)ccc1C(=O)c1cnoc1C1CC1 [IFT, (5-cyclopropyl-4-isoxazolyl)[2-(methylsulfonyl)-4-(trifluoromethyl)phenyl]methanone] | good tolerance | meets commercially acceptable levels | – | –
O=C(O)CNCP(=O)(O)O [glyphosate] | – | meets commercially acceptable levels | good tolerance | equal to or better than
